Assay results: patent publication US9557319B2, “Cell-based arrays, methods of making, and methods of using” (University of Florida Research Foundation, Inc., priority 2010, dated 2017)
Like-named read-outs stand apart in the source and are kept apart here. Marks after values point to notes of the source that are not given here.

Experiments:
[1] = Drug release from microarrayed drug-loaded EVA islands; assay type: physicochemical; conditions: release from drug-loaded EVA microarray, followed by steady release
Procedure: For drug release studies, polymer formulations were again made as described above. Glass coverslips were weighed prior to printing. Arrays consisting of 900 drug-loaded polymer islands were manufactured and allowed to dry overnight. Samples were weighed and placed in 3 ml of PBS containing 0.1% Tween-80 at 37° C. with gentle agitation. Samples were taken at the specified times and analyzed.

[2] = system: CA1 CCSCs; test: CA1 patient-derived CCSC proliferation on drug-eluting microarray; assay type: cell-based, human; conditions: for proliferation with increasing drug exposure: CA1 cells, single drug; for Emax / drug sensitivity (1/D50): non-proliferation
Procedure: ALDH^high spheres were generated from tumor cells obtained from patients with colon cancer. Isolated cells were cultured in serum-free media as previously described^14 (reference 14 is hereby incorporated by reference herein with respect to methods for culturing cells in serum-free media). Using these cultures, adherent cell growth was established with 0.1% gelatin (Millipore) coatings on tissue culture plates (TPP, Switzerland) and the cells were serially propagated. For CA1 and CA2 cells, 25,000 cells were tested per array. Cells were seeded in PBS with 0.1% gelatin and treated identically to the microarrays with HCT116.
(§1) Camptothecin-loaded microarrays were stained with Annexin V (BD Pharminigen), fixed in 4% paraformaldehyde, and placed in PBS with Hoechst dye 34580 (Invitrogen, USA) for 30 min. Azide-loaded microarrays were fixed with 4% paraformaldehyde and incubated with PBS containing Hoechst 34580 dye. Finally, nutlin-3a-loaded microarrays were fixed with 4% paraformaldehyde, stained with BrdU (BD Bioscience, San Jose, Calif.), and incubated in PBS containing Hoechst 34580 dye. All arrays were mounted with Fluoro-Gel (Electron Microscope Sciences, Hatfield, Pa.) and imaged using an Axiovert 200M microscope (Carl Zeiss, Oberkochen, Germany). Analysis was performed with Axiovision (Carl Zeiss, Oberkochen, Germany) by quantifying, in each drug-eluting island, the area of fluorescence and reported as relative fluorescence intensity (RFI).
(§2) Proliferation values were normalized to control (0 μM drug). Values for concentration-response curves were transformed to non-proliferation by subtracting the normalized value from 100%. Curve fitting analysis was performed to obtain Emax and D50 values using the equation E=E0+(Emax×D)/(D+D50) where E is the effect (either non-proliferation or apoptosis), E0 is the initial value, Emax is the maximum effect, D is the dose, and D50 is the dose at which a 50% maximum effect (Emax) is observed^34. Drug sensitivity values were obtained by taking the inverse of the D50 and multiplying by 100. Those values marked with “#” indicate that the r^2 value of the curve-fit was below 0.65. N/A values are present where negative parameters were obtained.

[3] = system: HCT116 cells; test: Proliferation of HCT116 cells incubated with soluble drugs in 96-well plates; assay type: cell-based, human; conditions: soluble drug, 24 h
Procedure: FIGS. 12A-12D are a series of graphs illustrating apoptosis and proliferation dose-response curves from HCT116 cells incubated with soluble drugs. FIG. 12A illustrates the percent of apoptotic HCT116 cells incubated 24 h with soluble nutlin-3a. […] Significant differences were determined by ANOVA, {F(5,282)=19.694, p<0.05}, followed by Tukey's post-hoc analysis. FIG. 12C illustrates the percent of non-proliferating HCT116 cells incubated 24 h with soluble nutlin-3a. Significant differences were determined by ANOVA, {F(4,226)=12.643, p<0.05}, followed by Tukey's post-hoc analysis. […] Significant differences were determined by ANOVA, {F(5,252)=102.485, p<0.05}, followed by Tukey's post-hoc analysis. (*: p<0.05 compared to all other conditions, #:p<0.05 from all conditions marked *).
Results were corroborated using soluble drugs in 96-well plates (FIGS. 12A-D).

[4] = system: HCT116 cells; test: HCT116 proliferation (BrdU) on drug-eluting cellular microarray; assay type: cell-based, human; conditions: for Emax / drug sensitivity (1/D50): non-proliferation, 24 h
From the text: Glass coverslips were cleaned in an oxygen plasma etcher (Terra Universal, Fullerton, Calif.). Arrays of isolated spots of (3-Aminopropyl) trimethoxysilane (NH2-terminated silane) (Sigma-Aldrich, St. Louis, Mo.) were robotically printed on clean coverslips using a Calligrapher Miniarrayer printer (Bio-Rad, Hercules, Calif.) with 1500 μm center to center distances and a pin diameter of 400 μm. The silane printed coverslips were then coated with 175 Å of titanium (Ti; 99.995% pure) and 225 Å of gold (Au; 99.999% pure) (Williams Advanced Materials, Buffalo, N.Y.). Following coating, gold-coated arrays were sonicated to remove gold from the amine spots, exposing NH2-terminated silane islands. The coverslips were incubated with 0.1 M, methyl-terminated alkanethiol (CH3(CH2)11SH) (Sigma) for 30 min. Substrates were incubated in 10% Pluronic® F-127 (BASF Corporation, USA) for 3 h and 1% heat-denatured BSA for 30 min to create a non-fouling surface around the adhesive amine islands. Three layers of the drug-loaded ethylene vinyl acetate (EVA) polymers were printed over the amine islands and placed in a desiccator between each successive layer. Poly-d-lysine (0.1%) was over-spotted onto the EVA films to promote cell attachment. […] Schematic diagrams of the arrays are illustrated in FIGS. 6A and 6B.
HCT116 (p53+/+, ATCC, Manassas, Va.) human colon cancer cells were maintained in McCoy's 5a Medium supplemented with 10% fetal bovine serum (Thermo Scientific, Waltham, Mass.), 1% penicillin G and 1% streptomycin (Thermo Scientific). The cells were cultured at 37° C. in a humidified incubator containing 5% CO2. Following microarray fabrication, 100,000 HCT116 cells were seeded over each array in 3 ml serum-free media and allowed to incubate on a rocking plate at room temperature until cell attachment to the EVA islands occurred, with minimal attachment to background, typically 10-15 min. Microarrays were gently washed in PBS, placed in a 35 mm petri dish with complete media, and placed in an incubator for 24-72 h.
as §1, §2
Hyperbolic curve fits were generated for the dose responses from a first drug in the presence of a fixed amount of a second drug for each combination (Tables 2 and 3, below). […]

[5] = Nutlin dose response, 2nd drug CPT 50 μM, CA1
[6] = Nutlin dose response, 2nd drug CPT 1 μM
[7] = Nutlin dose response, 2nd drug CPT 10 μM

SMILES: COc1ccc(C2=N[C@@H](c3ccc(Cl)cc3)[C@@H](c3ccc(Cl)cc3)N2C(=O)N2CCNC(=O)C2)c(OC(C)C)c1 [Nutlin-3a]
- burst release duration [1]: approximately 8 h
- increase in sensitivity to nutlin-3a ([2]; 10 μM camptothecin present vs nutlin-3a alone, CA1): 75%
- increase in Emax of the nutlin-3a concentration response curve ([2]; 50 μM camptothecin present vs nutlin-3a alone, CA1): 115%
- proliferation with increasing drug exposure [2]: decreasing proliferation
- Emax ([2]; Nutlin dose response, 2nd drug CPT 0 μM, CA1): 38.0
- drug sensitivity (1/D50) ([2]; Nutlin dose response, 2nd drug CPT 0 μM, CA1, listed as Nutlin): 28.6 +/− 4.7*
- drug sensitivity (1/D50) ([2]; Nutlin dose response, 2nd drug CPT 0 μM, CA1, listed as nutlin-3a): 28.6
- Emax ([2]; Nutlin dose response, 2nd drug CPT 1 μM, CA1): 34.7 +/− 5.9
- Emax ([2]; Nutlin dose response, 2nd drug CPT 10 μM, CA1): 50.9 +/− 0.15
- drug sensitivity (1/D50) ([2]; Nutlin dose response, 2nd drug CPT 10 μM, CA1, listed as Nutlin): 50.0 +/− 1.3*
- drug sensitivity (1/D50) ([2]; Nutlin dose response, 2nd drug CPT 10 μM, CA1, listed as nutlin-3a): 50.0
- Emax [2, 5]: 81.7
- drug sensitivity (1/D50) [2, 5]: 55.6 +/− 180
- effect on reducing proliferation of HCT116 cells [3]: dose-dependent effect
- increase in sensitivity to nutlin-3a on addition of camptothecin ([4]; 50 μM CPT compared to 0 μM CPT, HCT116 proliferation): over 5 fold
- cell cycle arrest (ratio of non-proliferating cells) on single-drug microarray ([4]; HCT116, 24 h): dose-dependent cell cycle arrest
- Emax ([4]; Nutlin dose response, 2nd drug CPT 0 μM): 108 +/− 110
- drug sensitivity (1/D50) ([4]; Nutlin dose response, 2nd drug CPT 0 μM, listed as Nutlin): 3.00 +/− 0.49*
- drug sensitivity (1/D50) ([4]; Nutlin dose response, 2nd drug CPT 0 μM, listed as nutlin-3a): 3.0
- Emax [4, 6]: 96.1 +/− 25
- drug sensitivity (1/D50) [4, 6]: 1.78 +/− 1.7
- Emax [4, 7]: 86.5 +/− 19
- drug sensitivity (1/D50) [4, 7]: 2.97 +/− 3.7
- Emax ([4]; Nutlin dose response, 2nd drug CPT 50 μM): 81.4 +/− 1.9
- drug sensitivity (1/D50) ([4]; Nutlin dose response, 2nd drug CPT 50 μM, listed as Nutlin): 19.6 +/− 12
- drug sensitivity (1/D50) ([4]; Nutlin dose response, 2nd drug CPT 50 μM, listed as nutlin-3a): 19.6

SMILES: CC[C@@]1(O)C(=O)OCc2c1cc1n(c2=O)Cc2cc3ccccc3nc2-1 [Camptothecin]
- burst release duration [1]: approximately 24 h
- proliferation with increasing drug exposure [2]: decreasing proliferation
- drug sensitivity (1/D50) ([2]; Camptothecin dose response, 2nd drug NUT 0 μM, CA1): 10.8 +/− 16
- drug sensitivity (1/D50) ([2]; Camptothecin dose response, 2nd drug NUT 1 μM, CA1): 1.97 +/− 7.7
- drug sensitivity (1/D50) ([2]; Camptothecin dose response, 2nd drug NUT 25 μM, CA1): 3.18 +/− 0.40
- drug sensitivity (1/D50) ([2]; Camptothecin dose response, 2nd drug NUT 125 μM, CA1): 0.62 +/− 1.8
- Emax ([2]; Homo sapiens, Camptothecin dose response, 2nd drug NUT 0 μM, CA1, read-out: Emax): 61.9%
- Emax ([2]; Homo sapiens, Camptothecin dose response, 2nd drug NUT 1 μM, CA1, read-out: Emax): 105%
- Emax ([2]; Homo sapiens, Camptothecin dose response, 2nd drug NUT 25 μM, CA1, read-out: Emax): 109%
- Emax ([2]; Homo sapiens, Camptothecin dose response, 2nd drug NUT 125 μM, CA1, read-out: Emax): 221%
- effect on reducing proliferation of HCT116 cells [3]: dose-dependent effect
- increase in sensitivity to camptothecin in presence of nutlin-3a ([4]; 125 μM nutlin compared to 0 μM nutlin, HCT116 proliferation): over 16 fold
- drug sensitivity (1/D50) ([4]; Camptothecin dose response, 2nd drug NUT 0 μM): 4.83 +/− 0.54*
- drug sensitivity (1/D50) ([4]; Camptothecin dose response, 2nd drug NUT 0 μM, listed as camptothecin): 4.83
- drug sensitivity (1/D50) ([4]; Camptothecin dose response, 2nd drug NUT 1 μM): 5.65 +/− 5.2
- drug sensitivity (1/D50) ([4]; Camptothecin dose response, 2nd drug NUT 25 μM): 12.1 +/− 18
- drug sensitivity (1/D50) ([4]; Camptothecin dose response, 2nd drug NUT 125 μM): 78.1 +/− 26*
- drug sensitivity (1/D50) ([4]; Camptothecin dose response, 2nd drug NUT 125 μM, listed as camptothecin): 78.1
- Emax ([4]; Homo sapiens, HCT-116, 24 h, Camptothecin dose response, 2nd drug NUT 0 μM, read-out: Emax): 86.4%
- Emax ([4]; Homo sapiens, HCT-116, 24 h, Camptothecin dose response, 2nd drug NUT 1 μM, read-out: Emax): 88.8%
- Emax ([4]; Homo sapiens, HCT-116, 24 h, Camptothecin dose response, 2nd drug NUT 25 μM, read-out: Emax): 86.3%
- Emax ([4]; Homo sapiens, HCT-116, 24 h, Camptothecin dose response, 2nd drug NUT 125 μM, read-out: Emax): 79.1%
